ChEMBL document CHEMBL5678818, “Discovery of potent SOS1 inhibitors that block RAS activation via disruption of the RAS-SOS1 interaction” (Proc Natl Acad Sci U S A, 2019)

Columns and labels:
[1] = biological target: Cyclin-dependent kinase 4 (Homo sapiens) (UniProt P11802); assay: Inhibition of CDK4 (unknown origin) assessed as residual activity at 1000 nM by KINOMEscan analysis relative to control
[2] = test system: Mast/stem cell growth factor receptor Kit (Homo sapiens), P10721 [V559D,V654A]; assay: Inhibition of KIT V559D/V654A mutant (unknown origin) assessed as residual activity at 100 nM by KINOMEscan analysis relative to control
[3] = test system: ALK tyrosine kinase receptor (Homo sapiens), Q9UM73 [C1156Y]; assay: Inhibition of ALK C1156Y mutant (unknown origin) assessed as residual activity at 100 nM by KINOMEscan analysis relative to control
[4] = biological target: T1, Dual specificity mitogen-activated protein kinase kinase 7 (Homo sapiens) (UniProt O14733); assay: Inhibition of MKK7 (unknown origin) assessed as residual activity at 100 nM by KINOMEscan analysis relative to control
T1 sequence (whole entry): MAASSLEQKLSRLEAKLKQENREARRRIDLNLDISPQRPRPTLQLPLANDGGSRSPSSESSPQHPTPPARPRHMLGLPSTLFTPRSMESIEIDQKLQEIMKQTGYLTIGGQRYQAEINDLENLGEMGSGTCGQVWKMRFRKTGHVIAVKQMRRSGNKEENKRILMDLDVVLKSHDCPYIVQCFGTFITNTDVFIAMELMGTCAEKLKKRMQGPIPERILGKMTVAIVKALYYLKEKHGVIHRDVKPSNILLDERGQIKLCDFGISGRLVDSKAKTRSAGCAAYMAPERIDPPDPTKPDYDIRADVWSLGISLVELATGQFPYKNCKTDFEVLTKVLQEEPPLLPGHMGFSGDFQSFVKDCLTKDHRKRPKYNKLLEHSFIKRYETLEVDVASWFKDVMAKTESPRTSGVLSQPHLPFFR

[5] = biological target: Tyrosine-protein kinase FRK (Homo sapiens) (UniProt P42685); assay: Inhibition of FRK (unknown origin) assessed as residual activity at 100 nM by KINOMEscan analysis relative to control
[6] = biological target: Cyclin-dependent kinase 14 (Homo sapiens) (UniProt O94921); assay: Inhibition of PFTK1 (unknown origin) assessed as residual activity at 100 nM by KINOMEscan analysis relative to control
[7] = biological target: T2, Myotonin-protein kinase (Homo sapiens) (UniProt Q09013); assay: Inhibition of DMPK (unknown origin) assessed as residual activity at 100 nM by KINOMEscan analysis relative to control
T2 sequence (whole entry): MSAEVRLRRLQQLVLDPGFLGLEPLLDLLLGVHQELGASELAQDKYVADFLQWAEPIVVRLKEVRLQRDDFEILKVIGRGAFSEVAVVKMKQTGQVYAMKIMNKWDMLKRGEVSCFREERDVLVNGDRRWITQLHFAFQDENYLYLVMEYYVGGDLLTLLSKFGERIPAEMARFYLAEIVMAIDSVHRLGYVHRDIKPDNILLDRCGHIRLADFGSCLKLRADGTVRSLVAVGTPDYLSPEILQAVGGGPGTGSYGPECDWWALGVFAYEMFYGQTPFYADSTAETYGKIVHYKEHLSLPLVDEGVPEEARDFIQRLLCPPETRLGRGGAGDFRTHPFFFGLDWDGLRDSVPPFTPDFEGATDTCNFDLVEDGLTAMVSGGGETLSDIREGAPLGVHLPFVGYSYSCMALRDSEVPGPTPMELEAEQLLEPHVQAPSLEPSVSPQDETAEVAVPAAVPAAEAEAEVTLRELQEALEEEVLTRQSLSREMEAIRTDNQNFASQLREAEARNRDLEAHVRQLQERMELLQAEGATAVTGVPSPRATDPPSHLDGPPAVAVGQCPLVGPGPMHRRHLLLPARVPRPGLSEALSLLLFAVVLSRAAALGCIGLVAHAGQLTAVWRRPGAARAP

[8] = biological target: T3, Mitogen-activated protein kinase kinase kinase 5 (Homo sapiens) (UniProt Q99683); assay: Inhibition of ASK1 (unknown origin) assessed as residual activity at 100 nM by KINOMEscan analysis relative to control
T3 sequence (whole entry): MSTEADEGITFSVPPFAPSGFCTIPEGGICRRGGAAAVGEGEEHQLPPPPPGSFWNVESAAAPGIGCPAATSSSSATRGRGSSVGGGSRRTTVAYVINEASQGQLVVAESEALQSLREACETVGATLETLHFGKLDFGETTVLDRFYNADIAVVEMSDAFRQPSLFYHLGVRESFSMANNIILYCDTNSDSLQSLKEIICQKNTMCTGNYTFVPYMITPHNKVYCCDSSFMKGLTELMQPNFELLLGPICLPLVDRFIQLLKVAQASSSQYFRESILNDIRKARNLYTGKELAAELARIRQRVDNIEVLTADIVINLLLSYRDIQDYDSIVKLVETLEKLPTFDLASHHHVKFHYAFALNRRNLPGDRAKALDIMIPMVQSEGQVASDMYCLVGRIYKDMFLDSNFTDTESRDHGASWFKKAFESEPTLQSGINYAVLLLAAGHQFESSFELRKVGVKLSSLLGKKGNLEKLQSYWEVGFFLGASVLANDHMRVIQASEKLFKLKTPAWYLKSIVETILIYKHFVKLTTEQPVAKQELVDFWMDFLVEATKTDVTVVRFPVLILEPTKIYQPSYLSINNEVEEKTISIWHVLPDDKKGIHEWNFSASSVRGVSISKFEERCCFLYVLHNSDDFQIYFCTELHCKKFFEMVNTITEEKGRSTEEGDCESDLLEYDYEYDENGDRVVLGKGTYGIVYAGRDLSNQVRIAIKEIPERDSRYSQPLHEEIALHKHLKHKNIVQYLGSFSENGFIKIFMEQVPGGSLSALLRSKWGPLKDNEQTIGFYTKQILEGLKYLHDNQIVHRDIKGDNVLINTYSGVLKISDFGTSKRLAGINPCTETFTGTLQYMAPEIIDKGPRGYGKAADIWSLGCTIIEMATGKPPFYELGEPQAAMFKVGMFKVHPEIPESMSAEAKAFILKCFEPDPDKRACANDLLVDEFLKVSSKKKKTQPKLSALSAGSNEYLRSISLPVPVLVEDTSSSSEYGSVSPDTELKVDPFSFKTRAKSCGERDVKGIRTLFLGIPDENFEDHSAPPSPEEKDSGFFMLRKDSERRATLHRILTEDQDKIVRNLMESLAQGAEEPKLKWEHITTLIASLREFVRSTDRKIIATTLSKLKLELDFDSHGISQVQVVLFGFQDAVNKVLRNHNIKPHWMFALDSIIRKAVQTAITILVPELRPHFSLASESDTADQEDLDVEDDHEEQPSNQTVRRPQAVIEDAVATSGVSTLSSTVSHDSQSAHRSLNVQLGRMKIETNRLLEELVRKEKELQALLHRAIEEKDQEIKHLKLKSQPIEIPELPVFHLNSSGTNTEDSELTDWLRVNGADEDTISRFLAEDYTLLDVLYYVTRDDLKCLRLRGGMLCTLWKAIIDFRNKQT

Mast/stem cell growth factor receptor Kit (Homo sapiens), P10721 [V559D,V654A], sequence (P10721 whole entry V559D/V654A): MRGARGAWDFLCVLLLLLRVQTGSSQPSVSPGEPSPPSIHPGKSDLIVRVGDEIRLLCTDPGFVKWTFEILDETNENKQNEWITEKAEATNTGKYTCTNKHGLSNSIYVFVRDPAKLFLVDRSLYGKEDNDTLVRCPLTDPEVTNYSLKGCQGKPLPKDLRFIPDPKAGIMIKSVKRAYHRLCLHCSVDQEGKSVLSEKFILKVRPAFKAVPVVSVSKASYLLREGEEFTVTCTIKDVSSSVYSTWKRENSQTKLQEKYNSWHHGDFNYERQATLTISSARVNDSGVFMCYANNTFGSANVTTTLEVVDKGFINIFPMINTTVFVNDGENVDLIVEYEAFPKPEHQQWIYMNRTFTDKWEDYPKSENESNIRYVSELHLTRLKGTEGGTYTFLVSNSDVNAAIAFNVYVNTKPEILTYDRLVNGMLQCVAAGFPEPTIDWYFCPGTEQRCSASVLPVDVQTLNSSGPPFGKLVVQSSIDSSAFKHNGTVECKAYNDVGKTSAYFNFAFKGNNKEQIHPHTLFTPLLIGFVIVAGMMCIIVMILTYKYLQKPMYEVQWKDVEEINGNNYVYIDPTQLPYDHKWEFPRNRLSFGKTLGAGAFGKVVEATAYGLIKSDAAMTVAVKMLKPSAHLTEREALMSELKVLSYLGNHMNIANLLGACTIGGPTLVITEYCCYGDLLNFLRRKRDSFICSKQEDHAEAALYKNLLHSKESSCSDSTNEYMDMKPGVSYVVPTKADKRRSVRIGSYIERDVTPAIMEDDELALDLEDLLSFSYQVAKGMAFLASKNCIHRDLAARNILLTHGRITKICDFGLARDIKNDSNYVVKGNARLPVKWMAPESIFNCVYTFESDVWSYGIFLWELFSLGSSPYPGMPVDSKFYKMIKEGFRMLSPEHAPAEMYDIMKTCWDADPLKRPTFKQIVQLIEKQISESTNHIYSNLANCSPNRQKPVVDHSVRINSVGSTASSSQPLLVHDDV
Cyclin-dependent kinase 4 (Homo sapiens), sequence (P11802 whole entry): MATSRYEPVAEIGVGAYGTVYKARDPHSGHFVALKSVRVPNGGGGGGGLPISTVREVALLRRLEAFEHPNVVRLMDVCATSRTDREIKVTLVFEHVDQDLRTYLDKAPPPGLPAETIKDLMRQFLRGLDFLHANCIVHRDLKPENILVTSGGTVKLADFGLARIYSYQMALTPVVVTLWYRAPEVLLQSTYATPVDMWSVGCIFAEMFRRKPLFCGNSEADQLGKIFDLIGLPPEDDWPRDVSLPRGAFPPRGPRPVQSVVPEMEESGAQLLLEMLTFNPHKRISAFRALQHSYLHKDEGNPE
Tyrosine-protein kinase FRK (Homo sapiens), sequence (P42685 whole entry): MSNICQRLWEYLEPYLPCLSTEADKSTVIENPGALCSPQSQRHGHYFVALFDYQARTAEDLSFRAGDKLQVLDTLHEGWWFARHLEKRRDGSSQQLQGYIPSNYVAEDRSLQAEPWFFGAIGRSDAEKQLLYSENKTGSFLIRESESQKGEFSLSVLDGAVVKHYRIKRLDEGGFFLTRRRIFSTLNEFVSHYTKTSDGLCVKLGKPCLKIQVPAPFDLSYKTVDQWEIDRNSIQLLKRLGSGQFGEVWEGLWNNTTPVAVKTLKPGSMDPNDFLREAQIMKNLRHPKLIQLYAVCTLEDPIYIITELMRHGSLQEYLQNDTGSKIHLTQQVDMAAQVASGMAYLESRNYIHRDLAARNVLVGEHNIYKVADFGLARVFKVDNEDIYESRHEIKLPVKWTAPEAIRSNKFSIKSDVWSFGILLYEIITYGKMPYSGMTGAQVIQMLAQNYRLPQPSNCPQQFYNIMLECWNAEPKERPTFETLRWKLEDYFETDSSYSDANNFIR
Cyclin-dependent kinase 14 (Homo sapiens), sequence (O94921 whole entry): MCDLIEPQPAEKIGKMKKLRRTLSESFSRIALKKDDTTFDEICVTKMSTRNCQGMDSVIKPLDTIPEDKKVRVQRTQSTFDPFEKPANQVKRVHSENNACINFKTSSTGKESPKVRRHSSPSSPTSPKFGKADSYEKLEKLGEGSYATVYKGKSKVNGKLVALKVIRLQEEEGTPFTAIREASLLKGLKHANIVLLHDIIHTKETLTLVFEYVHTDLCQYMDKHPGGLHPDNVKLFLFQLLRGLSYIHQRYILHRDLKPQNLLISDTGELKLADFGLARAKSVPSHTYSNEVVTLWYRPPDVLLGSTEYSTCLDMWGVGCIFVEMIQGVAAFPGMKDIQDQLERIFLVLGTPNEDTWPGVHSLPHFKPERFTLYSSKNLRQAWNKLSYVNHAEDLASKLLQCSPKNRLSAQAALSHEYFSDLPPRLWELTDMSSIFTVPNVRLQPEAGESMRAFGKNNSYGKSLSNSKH
ALK tyrosine kinase receptor (Homo sapiens), Q9UM73 [C1156Y], sequence (Q9UM73 whole entry C1156Y, looked up): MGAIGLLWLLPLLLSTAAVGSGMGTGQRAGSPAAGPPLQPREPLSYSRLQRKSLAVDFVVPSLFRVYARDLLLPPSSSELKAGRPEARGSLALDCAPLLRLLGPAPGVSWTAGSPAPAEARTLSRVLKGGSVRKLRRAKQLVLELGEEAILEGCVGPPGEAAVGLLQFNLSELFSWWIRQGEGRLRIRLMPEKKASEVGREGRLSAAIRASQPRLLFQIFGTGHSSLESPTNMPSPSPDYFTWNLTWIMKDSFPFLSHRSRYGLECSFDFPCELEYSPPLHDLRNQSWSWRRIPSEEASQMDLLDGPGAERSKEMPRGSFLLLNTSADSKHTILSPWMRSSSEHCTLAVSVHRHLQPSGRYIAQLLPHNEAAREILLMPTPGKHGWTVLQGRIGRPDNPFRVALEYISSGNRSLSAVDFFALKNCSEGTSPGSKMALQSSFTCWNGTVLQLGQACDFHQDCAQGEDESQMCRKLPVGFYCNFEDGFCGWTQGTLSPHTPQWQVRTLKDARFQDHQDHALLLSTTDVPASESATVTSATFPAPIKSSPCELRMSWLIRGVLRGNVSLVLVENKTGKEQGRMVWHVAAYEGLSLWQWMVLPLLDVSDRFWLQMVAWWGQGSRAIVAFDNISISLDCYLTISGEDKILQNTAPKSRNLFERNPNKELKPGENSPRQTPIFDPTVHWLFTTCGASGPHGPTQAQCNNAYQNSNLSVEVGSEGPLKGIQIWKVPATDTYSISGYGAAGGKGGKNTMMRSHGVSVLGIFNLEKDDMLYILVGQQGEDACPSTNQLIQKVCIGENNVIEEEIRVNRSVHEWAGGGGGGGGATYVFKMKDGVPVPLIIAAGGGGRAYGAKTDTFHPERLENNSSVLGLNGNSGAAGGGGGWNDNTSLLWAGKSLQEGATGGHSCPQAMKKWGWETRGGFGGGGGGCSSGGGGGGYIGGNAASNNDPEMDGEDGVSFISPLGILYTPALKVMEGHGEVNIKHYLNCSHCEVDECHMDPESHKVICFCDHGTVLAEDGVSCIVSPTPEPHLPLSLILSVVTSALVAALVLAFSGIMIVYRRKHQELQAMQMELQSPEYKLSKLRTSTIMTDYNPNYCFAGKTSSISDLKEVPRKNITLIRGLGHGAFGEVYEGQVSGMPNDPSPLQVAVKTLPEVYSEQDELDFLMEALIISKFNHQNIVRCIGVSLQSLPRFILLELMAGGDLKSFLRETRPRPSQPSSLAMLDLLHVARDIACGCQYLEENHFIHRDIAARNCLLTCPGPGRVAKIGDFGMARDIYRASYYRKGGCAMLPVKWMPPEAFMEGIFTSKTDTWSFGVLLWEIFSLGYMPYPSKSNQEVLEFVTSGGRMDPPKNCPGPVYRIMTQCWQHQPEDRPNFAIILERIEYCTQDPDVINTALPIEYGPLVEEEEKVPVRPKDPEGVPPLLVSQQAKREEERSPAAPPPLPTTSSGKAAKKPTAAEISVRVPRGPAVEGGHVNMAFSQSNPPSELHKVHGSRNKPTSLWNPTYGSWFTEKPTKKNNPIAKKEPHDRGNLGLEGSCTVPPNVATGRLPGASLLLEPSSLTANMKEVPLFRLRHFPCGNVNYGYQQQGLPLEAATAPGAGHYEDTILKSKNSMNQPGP

Row | SMILES | Activity [1] [%] | Activity [2] [%] | Activity [3] [%] | Activity [4] [%] | Activity [5] [%] | Activity [6] [%] | Activity [7] [%] | Activity [8] [%]
1 | COc1cc2nc(C)nc(N[C@H](C)c3cccc(-c4cn[nH]c4)c3)c2cc1OC | 92 | – | – | – | – | – | – | –
2 | COc1cc2ncnc(N[C@H](C)c3cccc4ccccc34)c2cc1OC | – | 100 | 99 | 77 | 93 | 91 | 100 | 70
